For data set [1] the following is noted: solid form; cited from earlier work.
Data set [2] has as its system HSV-1, influenza virus, poliovirus. The conditions noted are these: cited from earlier work; for antiviral effects in vitro: viruses such as HSV-1, influenza virus, poliovirus.
The next data set deals with human skin cells. The conditions noted are these: cited from earlier work.
Data set [3] can be described thus: Absorption of AA and DHAA into skin of human volunteers after topical application (Example 5). The data set is classed as in vivo. The settings on record: 1.4 mg/cm^2, after 4 hours. The method, then:
This solution was applied topically to the skin of human volunteers to compare the absorption rate of AA versus DHAA. To assess permeation into the stratum corneum, the solution was diluted 1:1 with water and applied at a rate of 1.4 mg/cm^2 to delineated skin surfaces and allowed 0, 2 or 4 hours for absorption. Each skin surface was then washed with deionized water, and the skin washings were collected and measured for AA and DHAA content. The amount absorbed at 2 and 4 hours was determined by subtraction from the amount present in the 0 hour washings.
Data points are the mean+/−SD of triplicate analyses on 4 subjects. The 2 and 4 hour values are the difference as percentage from the 0 hour (baseline) values, determined by analysis of skin washings. It can be seem that after 4 hours DHAA had absorbed into the skin at a rate about 12 times greater than AA, and that the total vitamin C content of the skin was increased at a much more rapid rate than applying AA alone. (Asterisks on FIG. 21 indicate the following: * Statistically significant at P<0.05. ** Statistically significant at P<0.01).

Data set [4] is described as follows: DHAA stability testing of glycerol solution oxidized with activated charcoal and oxygen (Example 2). The data set is classed as physicochemical. The conditions noted are these: "100% Glycerol", activated charcoal/oxygen oxidation, room temperature, 191 days. From the text: (§1) AA concentration in solution is commonly measured as the reducing activity of the solution using starch-iodine titration methods that are well-known in the art. […] This method is also well known in the art. DHAA in solution can be converted into AA by reducing agents such as dithiothreitol (DTT) or tris(2-carboxyethyl)phosphine (TCEP), and its concentration is commonly measured spectrophotometrically as the difference in absorbance of a solution subjected to reduction by DTT or TCEP versus a similar solution that is not subjected to a reducing agent. These methods are also well-known in the art, but see Deutsch for examples. In the description, claims, and the following examples, DHAA in the compositions of the invention is the vitamin C that can be measured by the difference in absorbance at 262 nm using TCEP reducing agent.
A solution of AA in pure USP glycerol was subjected to oxidizing conditions by suspending activated charcoal in the solution and then bubbling pure oxygen through the solution. Oxidation of AA during this process was monitored by starch-iodine titration. After the desired amount of AA had been oxidized, the activated charcoal was removed from the solution by centrifugation and filtration. […] The concentration of DHAA in the sample was measured by spectrometry on each testing day. […]

The nature of data set [5]: DHAA stability testing of propylene glycol/water solutions oxidized with Fenton's Reagent (Example 3). The conditions noted are these: room temperature. Type of data set: physicochemical.
Excerpt: as §1
AA was dissolved in purified water to give a highly concentrated solution, and then sufficient 30% hydrogen peroxide was added to oxidize about half of the AA. Iron to catalyze the reaction was provided by addition of ferrous sulfate. Oxidation of the AA was monitored by spectrometry until the expected amount of AA had been oxidized. This solution was labeled “100% Water.” Portions of this solution were combined with portions of pure, USP grade propylene glycol to produce solutions of “97% Propylene Glycol,” “95% Propylene Glycol,” “90% Propylene Glycol,” “80% Propylene Glycol,” “70% Propylene Glycol,” and “50% Propylene Glycol.” For example, 3 parts by volume of the “100% Water” solution were combined with 97 parts by volume propylene glycol to yield the “97% Propylene Glycol” solution.
Aliquots of each of the solutions prepared above were placed in translucent, screw-capped polyethylene vials and were stored at room temperature. […] The concentration of DHAA in each sample was measured by spectrometry on each testing day. The initial DHAA concentration of each solution was recorded and assigned a value of 100% (Day 0), and the concentration on each subsequent stability test day was calculated as the percent remaining of the initial concentration.

The nature of data set [6]: DHAA stability testing of ozone-oxidized glycerol/water solutions (Example 1). Type of data set: physicochemical.
Excerpt: as §1
A 15% AA solution in water was prepared by adding 15 grams AA per 100 mL purified water with stirring. A 15% solution of AA in glycerol was prepared by adding 15 grams AA per 100 mL pure USP glycerol and stirring with heat. A corona-discharge type ozone generator with feed-gas of pure oxygen was used to supply an oxidizing gas containing about 5% ozone, and each of the 15% AA solutions was subjected to oxidizing conditions by bubbling the oxidizing gas through the solution using a glass diffuser. The progress of AA oxidation in each solution was monitored by the disappearance of reducing activity as measured by starch-iodine titration. Each solution was subjected to the oxidizing conditions until all (>99%) of the original reducing activity had disappeared. The solution made with pure glycerol was labeled “100% Glycerol,” and the solution made with purified water was labeled “100% Water.” Portions of these two solutions were combined to produce solutions of various glycerol concentrations by weight, specifically “99% Glycerol,” “98% Glycerol,” “97% Glycerol,” “96% Glycerol,” “95% Glycerol”, “90% Glycerol,” and “50% Glycerol.” For example, 99 parts by weight of “100% Glycerol” was combined with 1 part by weight “100% Water” to produce the “99% Glycerol” solution.
Aliquots of each of the solutions prepared above were placed in translucent, screw-capped polyethylene vials and were stored at room temperature. No attempt was made to further protect the vials from ambient indoor light, and each vial contained a headspace of normal air. Each vial was periodically opened to remove a sample for stability testing over the next 229 days. The concentration of DHAA in each sample was measured by spectrometry on each testing day. The initial DHAA concentration of each solution on Day 1 was recorded and assigned a value of 100%, and the concentration on each subsequent stability test day was calculated as the percent remaining of the initial concentration.

A short description of data set [7]: DHAA stability in polyol solutions (general statements). The data set is classed as physicochemical.
A short description of data set [8]: DHAA stability testing of solutions with various AA:DHAA ratios (Example 4). Type of data set: physicochemical. From the text: AA concentration in solution is commonly measured as the reducing activity of the solution using starch-iodine titration methods that are well-known in the art. […] This method is also well known in the art. DHAA in solution can be converted into AA by reducing agents such as dithiothreitol (DTT) or tris(2-carboxyethyl)phosphine (TCEP), and its concentration is commonly measured spectrophotometrically as the difference in absorbance of a solution subjected to reduction by DTT or TCEP versus a similar solution that is not subjected to a reducing agent. These methods are also well-known in the art, but see Deutsch for examples. In the description, claims, and the following examples, DHAA in the compositions of the invention is the vitamin C that can be measured by the difference in absorbance at 262 nm using TCEP reducing agent. […]
Aliquots of each of the solutions prepared above were placed in transparent, screw-capped glass vials and were stored at room temperature. […] The concentration of DHAA in each sample was measured by spectrometry on each testing day. The initial DHAA concentration of each solution was recorded and assigned a value of 100% (Day 0), and the concentration on each subsequent stability test day was calculated as the percent remaining of the initial concentration.

Data on two compounds can be found in US9018252B2, “Stable compositions of dehydroascorbic acid” (priority 2010, dated 2015).

For `O=C1O[C@H]([C@@H](O)CO)C(O)=C1O` [AA, ascorbic acid], the “ease of dissolving the solid in water, AA compared with DHAA” value in [1] is “far more easily dissolved”. Also, in data set [2], the “antiviral effects in vitro” value is “antiviral effects”.

As for `O=C1O[C@H]([C@@H](O)CO)C(=O)C1=O` [DHAA, dehydroascorbic acid], in the data set on human skin cells, the “level absorbed into cells, DHAA relative to AA” value is 2 times. In addition, the “speed of absorption into cells, DHAA relative to AA” value with human skin cells is “up to 5 times”. Besides, the “rate of absorption into the skin, DHAA relative to AA” value in data set [3] is on record as “about 12 times”. Besides, the “DHAA stability” value in data set [4] was “excellent long-term stability”; in data set [5] (solutions containing high concentrations of propylene glycol, 31 days) it was “preserved very well”; in [6] (solutions containing high concentrations of glycerol, room temperature, up to 229 days) it was “preserved very well”; in [7] (polyol solutions with high water content (water to glycol/polyol at least 1:1)), “not stable”; in data set [7] (pure polyol solvents and solutions with polyol content greater than about 50 percent), “stable”; in [8] (polyol (100% glycerin) solutions with AA:DHAA ratios between 2:1 and 99:1, room temperature, 30 days), “preserved very well”. In [2] (in vitro), the “antiviral effects of DHAA compared with AA” value is reported as “much stronger”. Further, the “antiviral effects in vitro” value in data set [2] is listed as “antiviral effects”. Also, the “initial amount of DHAA remaining” value is on record as “less than 20%” in data set [5] ("100% Water" solution (Fenton's Reagent), after 5 days); “less than 10%” in data set [6] ("100% Water" solution, room temperature, tested at 20 days); “less than 20%” in data set [8] ("Control": 100% water, initial AA:DHAA about 1:1, room temperature, after 3 days). Besides, in data set [5] (many of the propylene glycol solutions, 31 days), the “DHAA concentration over time” value is recorded as “increased significantly”. Besides, in data set [6] (50% glycerol concentration, room temperature), the “DHAA stability compared with water” value is “only minor improvement”. In addition, the “initial DHAA concentration remaining” value in data set [6] (pure glycerol ("100% Glycerol"), approximately 8 months of storage at room temperature) was “greater than 80%”.
